Converted amounts (≈) assume the structure as drawn. Read-outs that look alike come from different tables or passages of the source.
Experiments:
[1] = system: C. parapsilosis ATCC 22019; assay: Anti-Fungal (Candida) Activity Assay, broth microtiter MIC; format: cell-based; conditions: Lodderomyces parapsilosis, read-out: MIC C. parapsilosis ATCC 22019
In short: (§1)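 Visual 48 h MIC endpoints are reported. Plates followed CLSI M27-A3 in RPMI 1640 plus MOPS.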

[2] = system: C. albicans ATCC 90028; assay: as above; format: cell-based; conditions: read-out: MIC C. albicans ATCC 90028
In short: as §1

[3] = system: C. krusei ATCC 6258; assay: as above; format: cell-based; conditions: Pichia kudriavzevii, read-out: MIC C. krusei ATCC 6258
In short: as §1

[4] = molecular target: human (hACC2) ACC2 (Homo sapiens, UniProt O00763); assay: In vitro Acetyl-CoA Carboxylase (ACC) inhibition assay (ADP-Glo), hACC2; format: biochemical
Chain of human (hACC2) ACC2 (O00763 whole entry): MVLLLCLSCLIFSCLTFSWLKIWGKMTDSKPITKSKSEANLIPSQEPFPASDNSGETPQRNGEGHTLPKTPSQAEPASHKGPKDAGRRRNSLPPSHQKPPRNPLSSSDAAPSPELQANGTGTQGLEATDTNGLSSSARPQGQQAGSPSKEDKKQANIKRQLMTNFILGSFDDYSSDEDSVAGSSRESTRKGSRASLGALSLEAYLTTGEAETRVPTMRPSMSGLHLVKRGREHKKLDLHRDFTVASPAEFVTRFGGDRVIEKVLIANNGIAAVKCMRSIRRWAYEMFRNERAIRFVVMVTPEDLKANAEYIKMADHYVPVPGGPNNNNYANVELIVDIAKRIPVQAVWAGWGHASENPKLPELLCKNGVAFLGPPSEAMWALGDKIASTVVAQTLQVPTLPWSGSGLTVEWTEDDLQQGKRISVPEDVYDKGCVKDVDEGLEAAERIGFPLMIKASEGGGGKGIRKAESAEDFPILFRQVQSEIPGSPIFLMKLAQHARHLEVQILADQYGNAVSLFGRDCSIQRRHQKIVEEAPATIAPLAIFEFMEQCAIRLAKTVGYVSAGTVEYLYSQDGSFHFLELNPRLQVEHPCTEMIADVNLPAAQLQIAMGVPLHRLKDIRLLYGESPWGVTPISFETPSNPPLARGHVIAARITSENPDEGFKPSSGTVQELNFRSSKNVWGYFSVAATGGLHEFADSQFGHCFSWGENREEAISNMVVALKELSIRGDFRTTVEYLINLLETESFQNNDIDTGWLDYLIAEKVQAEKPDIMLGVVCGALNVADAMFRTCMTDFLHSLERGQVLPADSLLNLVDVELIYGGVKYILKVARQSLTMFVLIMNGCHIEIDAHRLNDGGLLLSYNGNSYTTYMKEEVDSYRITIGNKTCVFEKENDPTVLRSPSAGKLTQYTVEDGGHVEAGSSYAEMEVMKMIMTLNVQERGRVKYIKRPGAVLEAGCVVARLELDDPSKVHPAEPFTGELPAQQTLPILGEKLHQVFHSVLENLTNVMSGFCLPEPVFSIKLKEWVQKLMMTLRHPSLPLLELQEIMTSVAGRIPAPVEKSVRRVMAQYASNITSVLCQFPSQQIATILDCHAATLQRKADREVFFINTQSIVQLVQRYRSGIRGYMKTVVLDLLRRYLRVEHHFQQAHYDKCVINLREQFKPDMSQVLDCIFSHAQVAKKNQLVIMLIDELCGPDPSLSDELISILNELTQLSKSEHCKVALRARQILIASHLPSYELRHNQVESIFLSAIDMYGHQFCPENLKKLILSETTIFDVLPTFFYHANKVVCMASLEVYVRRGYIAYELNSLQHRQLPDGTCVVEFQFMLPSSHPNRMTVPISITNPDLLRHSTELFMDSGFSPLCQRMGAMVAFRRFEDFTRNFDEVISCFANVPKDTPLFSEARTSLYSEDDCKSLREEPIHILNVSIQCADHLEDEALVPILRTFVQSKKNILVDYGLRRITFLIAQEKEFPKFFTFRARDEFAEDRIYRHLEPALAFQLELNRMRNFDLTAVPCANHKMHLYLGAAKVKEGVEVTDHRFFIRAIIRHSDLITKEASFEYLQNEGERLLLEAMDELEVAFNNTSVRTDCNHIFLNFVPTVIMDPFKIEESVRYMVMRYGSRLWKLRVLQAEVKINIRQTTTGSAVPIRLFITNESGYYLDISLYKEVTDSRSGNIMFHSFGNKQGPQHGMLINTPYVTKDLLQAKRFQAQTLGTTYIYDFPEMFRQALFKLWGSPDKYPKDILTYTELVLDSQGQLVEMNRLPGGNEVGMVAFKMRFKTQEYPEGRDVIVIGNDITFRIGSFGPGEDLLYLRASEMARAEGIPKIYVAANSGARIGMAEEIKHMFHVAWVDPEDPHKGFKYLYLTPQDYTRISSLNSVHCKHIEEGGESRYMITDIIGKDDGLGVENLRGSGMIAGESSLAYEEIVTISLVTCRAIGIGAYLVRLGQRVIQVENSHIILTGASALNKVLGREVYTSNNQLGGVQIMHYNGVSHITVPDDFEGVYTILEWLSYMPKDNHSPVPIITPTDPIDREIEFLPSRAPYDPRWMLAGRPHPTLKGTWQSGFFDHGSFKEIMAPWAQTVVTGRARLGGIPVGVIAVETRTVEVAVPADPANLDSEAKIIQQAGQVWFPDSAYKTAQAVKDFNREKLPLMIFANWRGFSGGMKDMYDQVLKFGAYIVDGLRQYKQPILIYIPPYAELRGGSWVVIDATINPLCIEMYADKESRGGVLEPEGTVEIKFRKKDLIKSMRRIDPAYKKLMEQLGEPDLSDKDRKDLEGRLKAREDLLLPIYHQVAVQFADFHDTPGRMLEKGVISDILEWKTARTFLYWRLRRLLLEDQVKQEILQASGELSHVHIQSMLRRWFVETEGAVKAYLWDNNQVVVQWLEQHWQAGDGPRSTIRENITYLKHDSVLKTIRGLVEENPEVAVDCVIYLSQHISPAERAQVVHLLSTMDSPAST
Experimental: The detailed procedure is as follows. […] 10 μL ADP glo reagent was added. […] 20 μL kinase detection reagent was added.
“NA” stands for “not assayed.”

[5] = molecular target: fungal (fACC2) ACC2 (UniProt Q00955); conditions: read-out: fACC2 IC50; fungal ACC2, ADP-Glo
Chain of fungal (fACC2) ACC2 (Q00955 whole entry): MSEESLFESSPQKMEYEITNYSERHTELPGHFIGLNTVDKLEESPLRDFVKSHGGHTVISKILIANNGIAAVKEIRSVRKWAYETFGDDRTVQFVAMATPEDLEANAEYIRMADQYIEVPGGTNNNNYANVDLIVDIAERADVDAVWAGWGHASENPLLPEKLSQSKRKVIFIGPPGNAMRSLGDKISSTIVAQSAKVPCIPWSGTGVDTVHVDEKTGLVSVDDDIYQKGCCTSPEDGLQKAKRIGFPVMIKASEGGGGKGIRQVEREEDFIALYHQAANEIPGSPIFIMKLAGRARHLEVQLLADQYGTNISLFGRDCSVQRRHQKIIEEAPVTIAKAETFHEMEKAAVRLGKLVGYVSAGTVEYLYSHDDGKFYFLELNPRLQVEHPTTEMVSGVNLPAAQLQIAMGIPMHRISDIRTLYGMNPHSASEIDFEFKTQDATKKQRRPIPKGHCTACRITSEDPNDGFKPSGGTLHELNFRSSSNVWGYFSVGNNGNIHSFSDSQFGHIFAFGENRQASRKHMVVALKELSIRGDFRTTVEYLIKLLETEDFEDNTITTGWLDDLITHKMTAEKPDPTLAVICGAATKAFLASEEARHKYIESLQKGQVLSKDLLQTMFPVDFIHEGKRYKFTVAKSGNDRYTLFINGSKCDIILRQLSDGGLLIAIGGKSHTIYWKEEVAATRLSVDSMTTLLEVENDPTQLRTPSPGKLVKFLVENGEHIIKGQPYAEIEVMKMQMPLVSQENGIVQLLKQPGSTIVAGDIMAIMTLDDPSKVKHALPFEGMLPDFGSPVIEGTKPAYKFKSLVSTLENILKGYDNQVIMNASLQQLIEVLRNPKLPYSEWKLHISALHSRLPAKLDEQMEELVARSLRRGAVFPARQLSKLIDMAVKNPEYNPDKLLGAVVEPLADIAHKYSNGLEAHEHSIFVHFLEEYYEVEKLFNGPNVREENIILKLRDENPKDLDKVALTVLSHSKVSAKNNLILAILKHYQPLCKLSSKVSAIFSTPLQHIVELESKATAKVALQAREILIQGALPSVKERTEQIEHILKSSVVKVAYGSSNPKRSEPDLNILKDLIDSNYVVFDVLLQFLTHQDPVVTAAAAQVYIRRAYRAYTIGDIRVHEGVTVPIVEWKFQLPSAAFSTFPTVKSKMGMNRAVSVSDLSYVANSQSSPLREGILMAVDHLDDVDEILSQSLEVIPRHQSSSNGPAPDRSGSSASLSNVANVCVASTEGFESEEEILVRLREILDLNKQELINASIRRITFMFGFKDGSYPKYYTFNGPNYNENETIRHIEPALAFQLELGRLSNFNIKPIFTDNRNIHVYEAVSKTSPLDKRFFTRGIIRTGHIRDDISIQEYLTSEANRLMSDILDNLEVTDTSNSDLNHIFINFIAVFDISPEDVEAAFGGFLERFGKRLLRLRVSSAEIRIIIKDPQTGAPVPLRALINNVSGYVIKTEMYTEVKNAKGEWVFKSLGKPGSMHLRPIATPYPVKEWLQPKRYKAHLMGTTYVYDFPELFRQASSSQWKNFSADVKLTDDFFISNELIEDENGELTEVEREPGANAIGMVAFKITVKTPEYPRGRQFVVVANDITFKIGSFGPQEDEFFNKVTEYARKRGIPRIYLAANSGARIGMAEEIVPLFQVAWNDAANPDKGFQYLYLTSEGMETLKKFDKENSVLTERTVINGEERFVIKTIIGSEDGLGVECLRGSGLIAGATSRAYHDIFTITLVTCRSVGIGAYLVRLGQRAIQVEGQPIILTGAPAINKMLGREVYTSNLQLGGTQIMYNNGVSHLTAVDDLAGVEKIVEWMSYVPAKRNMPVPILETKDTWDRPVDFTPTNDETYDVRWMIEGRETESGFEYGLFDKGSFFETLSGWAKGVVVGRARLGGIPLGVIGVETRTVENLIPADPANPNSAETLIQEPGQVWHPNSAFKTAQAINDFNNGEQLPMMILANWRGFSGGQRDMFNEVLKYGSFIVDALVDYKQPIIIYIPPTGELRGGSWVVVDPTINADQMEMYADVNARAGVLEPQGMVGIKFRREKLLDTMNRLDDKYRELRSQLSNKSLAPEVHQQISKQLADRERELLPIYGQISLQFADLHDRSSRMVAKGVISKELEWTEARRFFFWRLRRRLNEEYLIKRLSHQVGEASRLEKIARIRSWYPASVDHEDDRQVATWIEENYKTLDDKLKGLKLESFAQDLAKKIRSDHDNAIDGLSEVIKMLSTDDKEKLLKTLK

[6] = system: Fusarium moniliforme (Fm); assay: Growth inhibition assay of fungal pathogens; format: cell-based; conditions: for IC90: Fusarium verticillioides, 48 h, read-out: Concentration at 90% Inhibition Fm
In short: (§2)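 Compounds in DMSO tested at final 50, 10, 2 ppm or 2, 0.4, 0.08 ppm. Spores in 17% V8 medium, or 1.5 mm mycelial plugs in ¼ PDB for R. solani, incubated with compound. OD600 and visual ratings at 48 h versus 2% DMSO control gave percent growth inhibition.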

[7] = system: Fusarium virguliforme (Fv); assay: Growth inhibition assay of fungal pathogens; format: cell-based; conditions: 48 h
In short: as §2

[8] = system: Rhizoctonia solani (Rs); assay: Growth inhibition assay of fungal pathogens; format: cell-based; conditions: 48 h, read-out: Concentration at 90% Inhibition Rs
In short: as §2

[9] = system: Botrtyis cinerea (Bc); assay: Growth inhibition assay of fungal pathogens; format: cell-based; conditions: 48 h, read-out: Concentration at 90% Inhibition Bc
In short: as §2

[10] = system: Collectotrichum graminicola (Cg); assay: Growth inhibition assay of fungal pathogens; format: cell-based; conditions: 48 h, read-out: Concentration at 90% Inhibition Cg
In short: as §2

[11] = system: Phytophthora capsici (Pc); assay: Growth inhibition assay of fungal pathogens; format: cell-based; conditions: for IC90: Phytophthora capsici, read-out: Concentration at 90% Inhibition Pc
In short: as §2

[12] = system: Septoria tritici (St); assay: Growth inhibition assay of fungal pathogens; format: cell-based; conditions: for IC90: Zymoseptoria tritici, read-out: Concentration at 90% Inhibition St
In short: as §2

[13] = system: Diplodia maydis (Dm); assay: Growth inhibition assay of fungal pathogens; format: cell-based; conditions: Stenocarpella maydis, 48 h, read-out: Concentration at 90% Inhibition Dm
In short: as §2

[14] = ATCC22019, 3 replicates, MIC recorded at 48 h
[15] = ATCC90028, 3 replicates, MIC recorded at 48 h
[16] = ATCC6258, 3 replicates, MIC recorded at 48 h
[17] = Table 4a, 48 hours, read-out: Concentration at 90% Inhibition Fv
[18] = Table 4b, 48 hours, read-out: Concentration at 90% Inhibition Fv
[19] = read-out: Concentration at 90% Inhibition Fv, Table 4a, 48 hours
[20] = read-out: Concentration at 90% Inhibition Fv, Table 4b, 48 hours

Row | Compound | MIC [1, 14] | MIC [2, 15] | MIC [3, 16] | IC50 [4] | IC50 [5] | IC90 ([6]; Table 4a, 48 hours) | IC90 ([6]; Table 4b, 48 hours) | IC90 [7, 17] | IC90 [7, 18] | IC90 ([8]; Table 4a) | IC90 ([8]; Table 4b) | IC90 ([9]; Table 4a) | IC90 ([9]; Table 4b) | IC90 ([10]; Table 4a) | IC90 ([10]; Table 4b) | IC90 ([11]; Table 4a, 48 hours) | Concentration at 90% Inhibition Pc ([11]; Table 4b, 48 hours) | Concentration at 90% Inhibition St ([12]; Table 4b, 48 hours) | IC90 ([13]; Table 4a) | IC90 ([13]; Table 4b) | further results
1 | COc1ccc(F)cc1[C@H](Cn1c(=O)n(C(C)(C)C(=O)N2CCCC2)c(=O)c2c(C)c(-n3cccn3)sc21)OC[C@H](C)O [Compound I-40, 1-((R)-2-(5-fluoro-2-methoxyphenyl)-2-((S)-2-hydroxy-propoxy)ethyl)-5-methyl-3-(2-methyl-1-oxo-1-(pyrrolidin-1-yl)propan-2-yl)-6-(1H-pyrazol-1-yl)thieno[2,3-d]pyrimidine-2,4(1H,3H)-dione] | 2.1 to 4 µg/mL (≈ 3.42 to 6.52 µM) | > 4.1 µg/mL | 0.25 to 1 µg/mL (≈ 0.407 to 1.63 µM) | 10 to 40 nM | 0.6 to 3 nM | 2 µg/mL (≈ 3.26 µM) | 2 µg/mL (≈ 3.26 µM) | > 50 µg/mL | 10 µg/mL (≈ 16.3 µM) | 10 µg/mL (≈ 16.3 µM) | 2 µg/mL (≈ 3.26 µM) | > 50 µg/mL | 10 µg/mL (≈ 16.3 µM) | > 50 µg/mL | 10 µg/mL (≈ 16.3 µM) | > 50 µg/mL | D (“D” provided a compound concentration of >50 ppm at 90% inhibition of fungal pathogens) | D (“D” provided a compound concentration of >50 ppm at 90% inhibition of fungal pathogens) | > 50 µg/mL | > 50 µg/mL | IC90 ([12]; Table 4a, 48 hours): > 50 µg/mL
2 | COc1ccc(F)cc1[C@H](Cn1c(=O)n(C(C)(C)C(=O)N2CCCCC2)c(=O)c2c(C)c(-n3cccn3)sc21)OC(C)C [Compound I-2, (R)-1-(2-(5-fluoro-2-methoxyphenyl)-2-isopropoxyethyl)-5-methyl-3-(2-methyl-1-oxo-1-(piperidin-1-yl)propan-2-yl)-6-(1H-pyrazol-1-yl)thieno[2,3-d]pyrimidine-2,4(1H,3H)-dione] |  |  |  | 10 to 40 nM | 0.6 to 3 nM |  |  |  |  | 0.4 µg/mL (≈ 0.654 µM) | 0.4 µg/mL (≈ 0.654 µM) | 0.4 µg/mL (≈ 0.654 µM) | 0.4 µg/mL (≈ 0.654 µM) | 2 µg/mL (≈ 3.27 µM) | 2 µg/mL (≈ 3.27 µM) |  |  |  | 0.4 µg/mL (≈ 0.654 µM) | 0.4 µg/mL (≈ 0.654 µM) | MIC ([1]; ATCC22019, 48 h): 1.1 to 2 µg/mL (≈ 1.8 to 3.27 µM); MIC ([2]; ATCC90028, 48 h): 0.25 to 1 µg/mL (≈ 0.409 to 1.63 µM); MIC ([3]; ATCC6258, 48 h): 0.25 to 1 µg/mL (≈ 0.409 to 1.63 µM); IC90 [6]: 0.08 µg/mL (≈ 0.131 µM); Concentration at 90% Inhibition Fm ([6]; Table 4b, 48 hours): AA (“AA” provided a compound concentration of 0.08 ppm at 90% inhibition of fungal pathogens); IC90 [7, 19]: 0.4 µg/mL (≈ 0.654 µM); IC90 [7, 20]: 0.4 µg/mL (≈ 0.654 µM); IC90 ([11]; 48 h, Table 4a): > 50 µg/mL; IC90 ([11]; 48 h, Table 4b): > 50 µg/mL; IC90 ([12]; 48 h, Table 4a): > 50 µg/mL; IC90 ([12]; 48 h, Table 4b): > 50 µg/mL
3 | COc1ccc(F)cc1[C@H](Cn1c(=O)n([C@H](C)C(=O)NC(C)C)c(=O)c2c(C)c(-n3cccn3)sc21)OC(C)C [Compound I-30, (R)-2-(1-((R)-2-(5-fluoro-2-methoxyphenyl)-2-isopropoxyethyl)-5-methyl-2,4-dioxo-6-(1H-pyrazol-1-yl)-1,4-dihydrothieno[2,3-d]pyrimidin-3(2H)-yl)-N-isopropylpropanamide] |  |  |  | 3 to 10 nM | 0.6 to 3 nM |  |  |  |  | 2 µg/mL (≈ 3.5 µM) | 2 µg/mL (≈ 3.5 µM) | 2 µg/mL (≈ 3.5 µM) | 2 µg/mL (≈ 3.5 µM) | 2 µg/mL (≈ 3.5 µM) | 2 µg/mL (≈ 3.5 µM) |  |  |  | 2 µg/mL (≈ 3.5 µM) | 2 µg/mL (≈ 3.5 µM) | MIC ([1]; ATCC22019, 48 h): 0.25 to 1 µg/mL (≈ 0.437 to 1.75 µM); MIC ([2]; ATCC90028, 48 h): 0.25 to 1 µg/mL (≈ 0.437 to 1.75 µM); MIC ([3]; ATCC6258, 48 h): 0.25 to 1 µg/mL (≈ 0.437 to 1.75 µM); IC90 [6]: 0.4 µg/mL (≈ 0.7 µM); Concentration at 90% Inhibition Fm ([6]; Table 4b, 48 hours): A (“A” provided a compound concentration of 0.4 ppm at 90% inhibition of fungal pathogens); IC90 [7, 19]: 0.4 µg/mL (≈ 0.7 µM); IC90 [7, 20]: 0.4 µg/mL (≈ 0.7 µM); IC90 ([11]; 48 h, Table 4a): > 50 µg/mL; IC90 ([11]; 48 h, Table 4b): > 50 µg/mL; IC90 ([12]; 48 h, Table 4a): > 50 µg/mL; IC90 ([12]; 48 h, Table 4b): > 50 µg/mL
4 | COc1ccc(F)cc1[C@H](Cn1c(=O)n(C(C)(C)C(=O)N2CCCC2)c(=O)c2c(C)c(-n3cccn3)sc21)OC[C@@H](C)O [Compound I-37, 1-((R)-2-(5-fluoro-2-methoxyphenyl)-2-((R)-2-hydroxy-propoxy)ethyl)-5-methyl-3-(2-methyl-1-oxo-1-(pyrrolidin-1-yl)propan-2-yl)-6-(1H-pyrazol-1-yl)thieno[2,3-d]pyrimidine-2,4(1H,3H)-dione] | 2.1 to 4 µg/mL (≈ 3.42 to 6.52 µM) | 2.1 to 4 µg/mL (≈ 3.42 to 6.52 µM) | 1.1 to 2 µg/mL (≈ 1.79 to 3.26 µM) | 3 to 10 nM | 0.6 to 3 nM | 0.4 µg/mL (≈ 0.652 µM) | 0.4 µg/mL (≈ 0.652 µM) | 2 µg/mL (≈ 3.26 µM) | 2 µg/mL (≈ 3.26 µM) | 10 µg/mL (≈ 16.3 µM) | 2 µg/mL (≈ 3.26 µM) | 2 µg/mL (≈ 3.26 µM) | 2 µg/mL (≈ 3.26 µM) | > 50 µg/mL | 10 µg/mL (≈ 16.3 µM) | > 50 µg/mL | D (“D” provided a compound concentration of >50 ppm at 90% inhibition of fungal pathogens) | D (“D” provided a compound concentration of >50 ppm at 90% inhibition of fungal pathogens) | > 50 µg/mL | 10 µg/mL (≈ 16.3 µM) | IC90 ([12]; Table 4a, 48 hours): > 50 µg/mL
5 | COCCO[C@@H](Cn1c(=O)n(C(C)(C)C(=O)NC2CCC2)c(=O)c2c(C)c(-n3cccn3)sc21)c1cc(F)ccc1OC [Compound I-47, (R)—N-cyclobutyl-2-(1-(2-(5-fluoro-2-methoxyphenyl)-2-(2-methoxyethoxy)ethyl)-5-methyl-2,4-dioxo-6-(1H-pyrazol-1-yl)-1,4-dihydrothieno[2,3-d]pyrimidin-3(2H)-yl)-2-methylpropanamide] | 0.25 to 1 µg/mL (≈ 0.407 to 1.63 µM) | 0.25 to 1 µg/mL (≈ 0.407 to 1.63 µM) | 0.25 to 1 µg/mL (≈ 0.407 to 1.63 µM) | 10 to 40 nM | 0.6 to 3 nM |  | 0.4 µg/mL (≈ 0.652 µM) |  | 2 µg/mL (≈ 3.26 µM) |  | > 50 µg/mL |  | 2 µg/mL (≈ 3.26 µM) |  | 10 µg/mL (≈ 16.3 µM) |  |  |  |  | > 50 µg/mL | IC90 ([11]; Table 4b, 48 hours): > 50 µg/mL; IC90 ([12]; Table 4b, 48 hours): > 50 µg/mL

Reference: patent publication US10941158B2, “Pyrazole ACC inhibitors and uses thereof” (Gilead Apollo, LLC, priority 2015, dated 2021)
